Assay results: patent US10722496B2, “2-iminobiotin for use in the treatment of brain cell injury” (Neurophyxia B.V., priority 2015, dated 2020)

How the values were obtained:
IMR-32 cells [1] = experiment: Hydrogen peroxide in culture medium; type: cell-based, human; conditions: 30 ng/ml 2-IB, data not shown
IMR-32 cells [2] = experiment: Metabolic activity assay (MTS); type: cell-based, human
Experimental: (§1) In vitro hypoxia was induced in the cell cultures by using our recently described system with minor modifications (Huang et al., 2013b; Weber et al., 2015; Zitta et al., 2010). Enzyme stock solutions (100×) of catalase and glucose oxidase (both from Sigma-Aldrich) were prepared in cell culture medium (DMEM/F12, 1% FCS; final concentration: 120 U/ml and 2 U/ml respectively; Sigma-Aldrich) leading to a decrease of partial pressure of oxygen (pO2) below 10 mmHg within 5 minutes. Hypoxic conditions were confirmed by using a tissue oxygen pressure monitor (LICOX® CMP Oxygen Catheter; Integra, Plainsboro, USA). After 7 hours of hypoxia, the cells were washed twice with PBS (PAA) and fresh normoxic medium supplemented with solvent (citrate buffer 1%) or 2-IB (10, 30, 50, 100 and 300 ng/mL) was added to the cells. Investigations of cell damage, metabolic activity, ROS, hydrogen peroxide, nitrite/nitrate production, erkl/2, akt and stat5 phosphorylation as well as cell stress protein expression were performed with cell culture media or cell protein (FIG. 1).
Metabolically active cells were evaluated by using a colorimetric kit (CELLTITER96® AQueous One Solution Reagent G3580 Promega Madison, Wis., USA). Samples were prepared concerning to the manufacturer's protocol. Briefly, 4×10^4 cells were seeded per well in a 96-well plate with 100 μl DMEM/F12 supplemented with 10% FCS per well. After 2 days in culture, normoxia or hypoxia was applied for 7 hours followed by the addition of 2-IB or the respective solvent control (citrate 1%) for 17 hours. After that, 20 μl of […] reagent were added to each well for 2.5 hours at 37° C. Metabolic active cells generate a colored product, the absorbance of which was measured at 490 nm using an ELISA reader (Tecan, Crailsheim, Austria) in combination with the Magellan software v1.1.

erkl/2 = experiment: Western blotting, erkl/2 phosphorylation; type: cell-based, human; conditions: 30 ng/ml 2-IB
Experimental: as §1, with “Investigations of cell damage, metabolic activity, ROS, hydrogen peroxide, nitrite/nitrate production, erkl/2, akt and stat5 phosphorylation as well as cell stress protein expression were performed with cell culture media or cell protein (FIG. 1).” left out
Protein extraction was performed using RIPA buffer containing 150 mM sodium chloride, 1% NP-40, 1% sodium deoxycholate, 0.1% sodium dodecyl sulfate (SDS) and 50 mM Tris-HCl buffer (pH 7.6; all from Sigma-Aldrich) or alternatively M-PER buffer (Mammalian Protein Extraction Reagent; Pierce, Ill., USA). Protein concentrations were determined with Roti®-Quant assays (Carl Roth) and samples were stored at −20° C. until use. […] Images were taken and densitometrically analyzed with the software ImageJ (v1.41o, NIH).

[3] = test system: piglet model of perinatal global hypoxia-ischemia (HI); conditions: Peeters-Scholte et al., 2002; cited from earlier work
iNOS and nNOS = conditions: Tataranno et al., 2015; cited from earlier work
IMR-32 cells [4] = experiment: Nitrate/nitrite Griess assay in culture media; type: cell-based, human; conditions: data not shown
Experimental: as §1
Nitrate and nitrite concentrations were evaluated in culture media using a Griess colorimetric assay kit (Sigma-Aldrich) according to the manufacturer's instructions. Absorbance at 540 nm was measured in samples and standards using an ELISA reader (Tecan, Crailsheim, Germany).

IMR-32 cell cultures [5] = experiment: ROS fluorometric assay after hypoxia under mild hypothermia; type: cell-based, human
Experimental: (§2) In-vitro hypoxia was induced for 7 hours using IMR-32 cell cultures. After the hypoxic insult, cultures were subjected to 25 hours of mild hypothermia (33.5° C.) and were incubated with or without 2-IB (10, 30, 50, 100 and 300 ng/ml). Cell morphology was evaluated by brightfield microscopy and cell damage was analyzed by LDH assays. Production of reactive oxygen species (ROS) was measured using fluorometric assays. Western blotting for PARP and phosphorylated as well as unphosphorylated akt and erkl/2 was performed.

IMR-32 cells [6] = experiment: LDH cytotoxicity assay, hypoxia-induced cell damage; type: cell-based, human; conditions: 10 ng/ml 2-IB, 17 hours after hypoxia
IMR-32 cell cultures [7] = experiment: Hydrogen peroxide after hypoxia under mild hypothermia; type: cell-based, human; conditions: post-hypoxic application
Experimental: as §2

[8] = Toxicokinetics, repeated i.v. pulse infusions to adult rats; type: in vivo, rat; conditions: for mean AUC 0-4-hour: 6.6 mg/kg per 15-minute i.v. pulse, first and last pulse
Experimental: The toxicokinetics of 2-IB was studied over a 96-hour period by i.v. pulse infusions to adult rats. The purpose of this study was to generate toxicokinetic parameters (Cmax, tmax, AUC, t1/2) from 2-IB plasma concentrations in male and female rats after repeated i.v. infusion.
Group 1 received vehicle only. Systemic exposure was monitored on day 0 and day 4. Blood sampling was conducted at 15 minutes and 0.5, 1 and 4 hours after the first infusion, and 15 minutes and 0.5, 1, 4, 8 and 24 hours following the last dose.

Question: Which “hypoxia-induced release of hydrogen peroxide” value (IMR-32 cells [1]) does the source give for N=C1N[C@H]2[C@H](CS[C@H]2CCCCC(=O)O)N1 [2-IB, 2-iminobiotin] here?
Answer: Its value is “did not attenuate the hypoxia-induced release of hydrogen peroxide”.

Question: What about the metabolic activity (IMR-32 cells [2]; 10 ng/ml 2-IB, hypoxia) of the same compound?
Answer: The metabolic activity was 0.44±0.10 a.u.

Question: What about the metabolic activity (IMR-32 cells [2]; 10 ng/ml 2-IB, normoxia, 17 hours after hypoxia) of the same compound?
Answer: Its metabolic activity is 0.44±0.08 a.u.

Question: And the metabolic activity (IMR-32 cells [2]; 30 ng/ml 2-IB, hypoxia)?
Answer: Its metabolic activity is 0.45±0.09 a.u.

Question: And the metabolic activity (IMR-32 cells [2]; 30 ng/ml 2-IB, normoxia)?
Answer: The metabolic activity was 0.49±0.08 a.u.

Question: What about the metabolic activity (IMR-32 cells [2]; 50 ng/ml 2-IB, hypoxia) of the same compound?
Answer: Its metabolic activity is 0.41±0.06 a.u.

Question: And the metabolic activity (IMR-32 cells [2]; 50 ng/ml 2-IB, normoxia)?
Answer: The metabolic activity was 0.50±0.08 a.u.

Question: And the metabolic activity (IMR-32 cells [2]; 100 ng/ml 2-IB, hypoxia)?
Answer: Its metabolic activity is 0.33±0.06 a.u.

Question: What about the metabolic activity (IMR-32 cells [2]; 100 ng/ml 2-IB, normoxia) of the same compound?
Answer: Its metabolic activity is 0.58±0.09 a.u.

Question: What about the metabolic activity (IMR-32 cells [2]; 300 ng/ml 2-IB, hypoxia) of the same compound?
Answer: Its metabolic activity is 0.33±0.07 a.u.

Question: What about the metabolic activity (IMR-32 cells [2]; 300 ng/ml 2-IB, normoxia) of the same compound?
Answer: Its metabolic activity is 0.63±0.09 a.u.

Question: And the “hypoxia-induced reduction of metabolic activity, most efficient concentrations” value (IMR-32 cells [2]; 10-300 ng/ml tested, P<0.01 vs. control)?
Answer: Its value is “most efficiently counteracted by 10, 30 and 50 ng/ml 2-IB”.

Question: What about the “phosphorylation of erkl/2” value (erkl/2) of the same compound?
Answer: Its value is “did not influence”.

Question: What about the neurological damage [3] of the same compound?
Answer: Its neurological damage is “reduces the amount of neurological damage”.

Question: And the “inhibition of NO biosynthesis” value (iNOS and nNOS)?
Answer: Its value is “reversible inhibitor of NO biosynthesis, blocking mainly iNOS and nNOS activity”.

Question: And the “nitrate and nitrite concentrations in culture media” value (IMR-32 cells [4])?
Answer: The value was “neither nitrate nor nitrite concentrations were influenced by hypoxia or by 2-IB”.

Question: And the “hypoxia-induced ROS production” value (IMR-32 cell cultures [5]; 30 ng/ml 2-IB post-hypoxic, mild hypothermia (33.5° C.))?
Answer: Its value is “attenuated the hypoxia-induced ROS production under hypothermic conditions”.

Question: And the “hypoxia-induced ROS generation” value (IMR-32 cell cultures [5]; higher concentrations of 2-IB (above 30 ng/ml), mild hypothermia)?
Answer: Its value is “less effective in reducing hypoxia-induced ROS generation”.

Question: And the “LDH/total LDH” value (IMR-32 cells [6]; hypoxia)?
Answer: Its value is 0.15±0.03.

Question: What about the “LDH/total LDH” value (IMR-32 cells [6]; normoxia) of the same compound?
Answer: Its value is 0.09±0.02.

Question: What about the “generation of hydrogen peroxide” value (IMR-32 cell cultures [7]) of the same compound?
Answer: Its value is “did not influence generation of hydrogen peroxide”.

Question: What about the “mean AUC 0-4-hour” value ([8]; 1st of four values printed for male and female rats) of the same compound?
Answer: Its value is 2310 ng·h/mL.

Question: And the “mean AUC 0-4-hour” value ([8]; 2nd of four values printed for male and female rats)?
Answer: The value was 2530 ng·h/mL.

Question: And the “mean AUC 0-4-hour” value ([8]; 3rd of four values printed for male and female rats)?
Answer: Its value is 1750 ng·h/mL.

Question: And the “mean AUC 0-4-hour” value ([8]; 4th of four values printed for male and female rats)?
Answer: The value was 1950 ng·h/mL.

Question: What about the “overall mean AUC 0-4-hour” value ([8]; 6.6 mg/kg per pulse, across sexes and first and last pulses) of the same compound?
Answer: Its value is “about 2135 ng·h/mL”.

Question: And the AUC expected ([8]; rat, 3.3 mg/kg dose level, assuming linear PK)?
Answer: The AUC expected was “about 1068 ng·h/mL”.
